Assay results: patent US20060165766A1, “Method for preparing liposome formulations with a predefined release profile” (priority 2001, published 2006)
Where “and” joins values, the source holds several entries; their conditions need not be identical. Equal entries are not always repeated. Structures can show the parent of a compound that is named as a salt.

Legend:
[1] = Partition coefficient (Kp) octanol/water; type: physicochemical
Excerpt: Other parameters that may influence kinetics of release include the lipophilicity of the loaded agent and the liposome trapped volume. The higher the lipophilicity, the faster will be the release rate of the agent from the liposome. The lipophilicity of a compound may be reflected by its partition coefficient (Kp) is between octanol and water.

[2] = Osmolality measurements: contribution of amphipathic base to osmotic pressure of salt solutions (aggregation); type: physicochemical; conditions: for % of expected value of osmolality contribution / Level of aggregation / Expected contribution of 25 mM amphipathic base to osmolality (calibrated in DDW and NaCl): 25 mM base; for Expected contribution of 25 mM amphipathic base to osmolality (calibrated in DDW and NaCl): pure water or NaCl solutions; for Osmolality of agent: 25 mM in DDW (pure water); for mOsm versos mM (slope); extent of dissociation: slope of osmolality (mOsm) versus concentration (mM)
Procedure: Level of aggregation of the exemplified agents was evaluated by measuring osmotic pressure. Osmotic pressure is a colrgative property, depending on the actual concentration (particles per unit volume) of a solution. Thus, in case of aggregate formation in a solution, the actual concentration of the solution will be lower than the theoretical concentration of the solution, which will be evident by a lower than expected osmotic pressure.
For osmotic pressure measurements, double distilled water (DDW) obtained using Water ProPlus (Labconco, Kansas City, Mo., USA) was used for all solutions. Osmolality was measured using a 5500 Vapor Pressure Osmometer (Wescor Inc., Logan, Utah, USA) or freezing point osmometer μOSMETIE MicroOsmometer of Precision Systems (atich, MA, USA). Calibration curves of TMN, AO, and BUP osmolality in the range of 10-40 mM in pure water were used to describe the relationship between concentration and osmotic pressure of all compounds.
The effect of salts on the osmotic pressure of the amphipathic base (25 mM) was also examined by comparing the effect of NaCl with that of various ammonium salts. As a control, the osmotic pressure of each salt alone was also measured.

[3] = Aggregation of BUP and AO with dextran sulfate (DS); type: physicochemical; conditions: for Mole ratio weak base/DS at which aggregation (precipitation) starts: dextran sulfate
Excerpt: The dependence of the aggregation process on the loaded molecule was shown by the examples of BUP and AO. […] This however can be modified through the use of sodium salt of dextran sulfate as an additional counter ion. […]

[4] = Conductivity measurements of salts; type: physicochemical; conditions: salt 50 mM in DDW
Procedure: Solutions in concentration range of 0.5-50 mM of NaCl and ammonium salts were prepared in DDW and measured in an “Oyster” conductivity meter (KTech).

[5] = Kinetics of TMN leakage from egg PC MLV; conditions: for Leakage from liposomes: 4° C.

% of expected value of osmolality contribution ([2]; ammonium chloride 40 mM)	% of expected value of osmolality contribution ([2]; ammonium chloride 80 mM)	Level of aggregation ([2]; ammonium chloride 80 mM)	% of expected value of osmolality contribution ([2]; ammonium citrate 40 mM)	% of expected value of osmolality contribution ([2]; ammonium citrate 80 mM)	Level of aggregation ([2]; ammonium citrate 80 mM)	% of expected value of osmolality contribution ([2]; ammonium glucuronate 40 mM)	% of expected value of osmolality contribution ([2]; ammonium glucuronate 80 mM)	Level of aggregation ([2]; ammonium glucuronate 80 mM)	% of expected value of osmolality contribution ([2]; ammonium phosphate 40 mM)	% of expected value of osmolality contribution ([2]; ammonium phosphate 80 mM)	% of expected value of osmolality contribution ([2]; ammonium sulfate 40 mM)	% of expected value of osmolality contribution ([2]; ammonium sulfate 80 mM)	Level of aggregation ([2]; ammonium sulfate 80 mM)	Expected contribution of 25 mM amphipathic base to osmolality (calibrated in DDW and NaCl) [2]	Osmolality of agent [2]	Measured contribution of 25 mM base to osmolality ([2]; ammonium chloride 40 mM)	Measured contribution of 25 mM base to osmolality ([2]; ammonium chloride 80 mM)	Measured contribution of 25 mM base to osmolality ([2]; ammonium citrate 40 mM)	SMILES	mOsm versos mM (slope); extent of dissociation [2]	other results
97%	100%	None//None	100%	91%	None	100%	100%	None//None	97%	84%	97%	88%	None	32±5 mOsm and 32 mOsm	32 mOsm	31 mOsm	30 mOsm and 32 mOsm	32 mOsm	CCCCN1CCCCC1C(=O)Nc1c(C)cccc1C (stereo not drawn) [BUP, bupivacaine]		Partition coefficient (Kp) octanol/water ([1]; pH 6, 250 mM (NH4)2SO4): 0.35 (at pH 6, 250 mM (NH4)2SO4); Level of aggregation ([2]; ammonium phosphate 80 mM): None//|Low; Measured contribution of 25 mM base to osmolality ([2]; ammonium citrate 80 mM): 25 mOsm and 29 mOsm; Measured contribution of 25 mM base to osmolality ([2]; ammonium glucuronate 40 mM): 33 mOsm; Measured contribution of 25 mM base to osmolality ([2]; ammonium glucuronate 80 mM): 31 mOsm and 32 mOsm; Measured contribution of 25 mM base to osmolality ([2]; ammonium phosphate 40 mM): 30 mOsm; Measured contribution of 25 mM base to osmolality ([2]; ammonium phosphate 80 mM): 30 mOsm and 27 mOsm; Measured contribution of 25 mM base to osmolality ([2]; ammonium sulfate 40 mM): 31 mOsm; Measured contribution of 25 mM base to osmolality ([2]; ammonium sulfate 80 mM): 29 mOsm and 28 mOsm; Ratio at which aggregation reaches a plateau ([3]; DS 10,000 Da): 50 nmole AO or BUP per 1 mmole DS; Mole ratio weak base/DS at which aggregation (precipitation) starts [3]: 1.0
																			N.N.O=S(=O)(O)O [(NH4)2SO4, ammonium sulfate]	2.97	
																			N.O=C[C@H](O)[C@@H](O)[C@H](O)[C@H](O)C(=O)O [NH4 glucuronate, Ammonium glucuronate]	1.62	Conductivity [4]: 3.88 mS/cm
																			N.N.N.O=C(O)CC(O)(CC(=O)O)C(=O)O [(NH4)3 citrate, ammonium citrate, tribasic]	3.45	Conductivity [4]: 11.96
																			[Cl-].[Na+] [NaCl]	2.00	
																			Cl.N [NH4Cl, Ammonium chloride]	1.96	
100%	100%	None//None	96%	90%	Low	100%	100%	None//None	92%	79%	94%	85%	Low	48±4 mOsm and 48 mOsm	48 mOsm	49 mOsm	51 mOsm and 48 mOsm	46 mOsm	CN(C)c1ccc2cc3ccc(N(C)C)cc3nc2c1 [AO, Acridine orange hemi(zinc chloride) salt]		Partition coefficient (Kp) octanol/water ([1]; pH 5.5, 120 mM (NH4)2SO4): 9.00 (at pH 5.5, 120 mM (NH4)2SO4); Measured contribution of 25 mM base to osmolality ([2]; ammonium citrate 80 mM): 43 mOsm; Measured contribution of 25 mM base to osmolality ([2]; ammonium glucuronate 40 mM): 48 mOsm; Measured contribution of 25 mM base to osmolality ([2]; ammonium glucuronate 80 mM): 50 mOsm and 48 mOsm; Measured contribution of 25 mM base to osmolality ([2]; ammonium phosphate 40 mM): 44 mOsm; Measured contribution of 25 mM base to osmolality ([2]; ammonium phosphate 80 mM): 41 mOsm and 38 mOsm; Measured contribution of 25 mM base to osmolality ([2]; ammonium sulfate 40 mM): 45 mOsm; Measured contribution of 25 mM base to osmolality ([2]; ammonium sulfate 80 mM): 44 mOsm and 41 mOsm; Ratio at saturation of precipitation ([3]; DS 8,000 Da): 40; Ratio at saturation of precipitation ([3]; DS 10,000 Da): 50; Ratio at which aggregation reaches a plateau ([3]; DS 10,000 Da): 50 nmole AO or BUP per 1 mmole DS; Mole ratio weak base/DS at which aggregation (precipitation) starts [3]: 1
																			N.N.O=P(O)(O)O [(NH4)2HPO4, ammonium phosphate, dibasic]	2.83	

SMILES	% of expected value of osmolality contribution ([2]; ammonium chloride 40 mM)	% of expected value of osmolality contribution ([2]; ammonium chloride 80 mM)	Level of aggregation ([2]; ammonium chloride 80 mM)	% of expected value of osmolality contribution ([2]; ammonium citrate 40 mM)	% of expected value of osmolality contribution ([2]; ammonium citrate 80 mM)	Level of aggregation ([2]; ammonium citrate 80 mM)	% of expected value of osmolality contribution ([2]; ammonium glucuronate 40 mM)	% of expected value of osmolality contribution ([2]; ammonium glucuronate 80 mM)	Level of aggregation ([2]; ammonium glucuronate 80 mM)	% of expected value of osmolality contribution ([2]; ammonium phosphate 40 mM)	% of expected value of osmolality contribution ([2]; ammonium phosphate 80 mM)	% of expected value of osmolality contribution ([2]; ammonium sulfate 40 mM)	% of expected value of osmolality contribution ([2]; ammonium sulfate 80 mM)	Level of aggregation ([2]; ammonium sulfate 80 mM)	Expected contribution of 25 mM amphipathic base to osmolality (calibrated in DDW and NaCl) [2]	Osmolality of agent [2]	Measured contribution of 25 mM base to osmolality ([2]; ammonium chloride 40 mM)	Measured contribution of 25 mM base to osmolality ([2]; ammonium chloride 80 mM)	Measured contribution of 25 mM base to osmolality ([2]; ammonium citrate 40 mM)	mOsm versos mM (slope); extent of dissociation [2]	other results
CC1(C)CC(N)CC(C)(C)N1[O] [TMN, 2,2,6,6-tetramethylpiperidine-4-amino-1-oxyl]	100%	60%	medium	62%	20%	high	95%	90%	None	71%	20%	19%	0%	complete	21 mOsm	21 mOsm	21 mOsm	12 mOsm	13 mOsm		Partition coefficient (Kp) octanol/water ([1]; pH 7, 150 mM (NH4)2SO4): 0.04 (at pH 7, 150 mM (NH4)2SO4); Leakage from liposomes ([5]; ammonium chloride gradient): less than 10%; Leakage from liposomes ([5]; ammonium glucuronate gradient): less than 10%; Leakage from liposomes ([5]; ammonium sulfate gradient, until 144 hr): no TV leakage was observed; Order of encapsulation stability by ammonium salt ([5]; 25° C. and 37° C.): (NH4)2SO4>>NH4Cl>NH4 glucuronate; Level of aggregation ([2]; ammonium chloride 40 mM): Low; Level of aggregation ([2]; ammonium citrate 40 mM): Medium; Level of aggregation ([2]; ammonium glucuronate 40 mM): None; Level of aggregation ([2]; ammonium phosphate 40 mM): Medium; Level of aggregation ([2]; ammonium phosphate 80 mM): high; Level of aggregation ([2]; ammonium sulfate 40 mM): High; Aggregation in NaCl solutions ([2]; NaCl): lack of aggregate formation; Ranking of extent of aggregation with ammonium salts ([2]; Tables Ia, Ib, Ic): ammonium sulfate>ammonium citrate=ammonium phosphate>>ammonium chloride>ammonium glucuronate; Measured contribution of 25 mM base to osmolality ([2]; ammonium citrate 80 mM): 5 mOsm; Measured contribution of 25 mM base to osmolality ([2]; ammonium glucuronate 40 mM): 20 mOsm; Measured contribution of 25 mM base to osmolality ([2]; ammonium glucuronate 80 mM): 19 mOsm; Measured contribution of 25 mM base to osmolality ([2]; ammonium phosphate 40 mM): 15 mOsm; Measured contribution of 25 mM base to osmolality ([2]; ammonium phosphate 80 mM): 5 mOsm; Measured contribution of 25 mM base to osmolality ([2]; ammonium sulfate 40 mM): 4 mOsm; Measured contribution of 25 mM base to osmolality ([2]; ammonium sulfate 80 mM): 0 mOsm
